Patent publication US7326729B2, “CXCR1 and CXCR2 chemokine antagonists” (Schering Corporation, priority 2004, dated 2008)
Where “and” joins values, the source holds several entries; their conditions need not be identical. Identical values can stand only once.

What was measured:
[1] = biological target: T1, hCXCR2 (Homo sapiens, UniProt P25025); test: CXCR2 SPA Assay ([125I]-IL-8 receptor binding); conditions: hCXCR2-CHO overexpressing membranes, [125I]-IL-8 0.1 nM
T1 construct: purchased Biosignal; host or cells: CHO cells (membranes)
T1 sequence (P25025 1-360): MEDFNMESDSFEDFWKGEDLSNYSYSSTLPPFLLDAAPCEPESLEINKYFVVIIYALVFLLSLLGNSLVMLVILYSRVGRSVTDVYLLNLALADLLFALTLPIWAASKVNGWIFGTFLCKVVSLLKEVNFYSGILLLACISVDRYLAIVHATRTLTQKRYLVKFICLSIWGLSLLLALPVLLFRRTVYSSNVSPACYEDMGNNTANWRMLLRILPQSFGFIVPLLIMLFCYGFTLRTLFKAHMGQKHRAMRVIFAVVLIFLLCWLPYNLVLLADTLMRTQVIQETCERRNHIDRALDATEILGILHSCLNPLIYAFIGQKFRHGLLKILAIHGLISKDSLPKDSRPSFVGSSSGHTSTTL
Description: For each well of a 96 well plate, a reaction mixture of 2.5 μg hCXCR2-CHO overexpressing membranes (Biosignal) and 200 μg/well WGA-SPA beads (Amersham) in 160 μl was prepared in CXCR2 assay buffer (25 mM HEPES, pH 7.4, 2 mM CaCl2, 1 mM MgCl2). A 1 nM stock of ligand, [125I]-IL-8 (NEN), was prepared in the CXCR2 assay buffer. 10× stock solutions of test compounds were prepared in DMSO (Sigma). The above solutions were added to a 96-well assay plate (PerkinElmer or Corning) as follows: 20 μl test compound or DMSO, 160 μl of reaction mixture, 20 μl of ligand stock (Final [Ligand]=0.1 nM). The assay plates were shaken for 5 minutes on a plate shaker, then incubated for 12 hours before cpm/well were determined in Microbeta Trilux counter (PerkinElmer).

[2] = biological target: T2, hCXCR1 (Homo sapiens, UniProt P25024); test: CXCR1 SPA Assay ([125I]-IL-8 receptor binding); conditions: hCXCR1-CHO overexpressing membranes, [125I]-IL-8 0.05 nM
T2 construct: purchased Biosignal; host or cells: CHO cells (membranes)
T2 sequence (P25024 1-350): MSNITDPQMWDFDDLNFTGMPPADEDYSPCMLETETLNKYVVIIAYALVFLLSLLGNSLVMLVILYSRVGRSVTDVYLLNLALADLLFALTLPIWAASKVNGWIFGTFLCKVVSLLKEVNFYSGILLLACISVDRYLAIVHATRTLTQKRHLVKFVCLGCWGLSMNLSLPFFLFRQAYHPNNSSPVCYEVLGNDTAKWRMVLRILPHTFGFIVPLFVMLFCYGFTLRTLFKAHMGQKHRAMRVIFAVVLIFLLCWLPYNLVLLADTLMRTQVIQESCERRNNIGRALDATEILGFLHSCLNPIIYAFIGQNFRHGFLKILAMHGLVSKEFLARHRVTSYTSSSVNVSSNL
Description: For each well of a 96 well plate, a reaction mixture of 2.2 μg hCXCR1-CHO overexpressing membranes (Biosignal) and 100 μg/well WGA-SPA beads (Amersham) in 160 μl was prepared in CXCR1 assay buffer (25 mM HEPES, pH 7.8, 2 mM CaCl2, 1 mM MgCl2, 125 mM NaCl, 0.1% BSA) (Sigma). A 0.5 nM stock of ligand, [125I]-IL-8 (NEN) was prepared in the CXCR1 assay buffer. 10× stock solutions of test compounds were prepared in 10% DMSO (Sigma). The above solutions were added to a 96-well assay plate (PerkinElmer) as follows: 20 μl test compound or DMSO, 160 μl of reaction mixture, 20 μl of ligand stock (Final [Ligand]=0.05 nM). The assay plates were shaken for 5 minutes on plate shaker, then incubated for 12 hours before cpm/well were determined in Microbeta Trilux counter (PerkinElmer). % Inhibition of Total binding-NSB (250 nM IL-8) was determined for IC50 values.

Structure (SMILES)	Ki [1]	Ki [2]	melting point [°C]
CCNS(=O)(=O)c1scc(NC(=O)Nc2cccc(Cl)c2Cl)c1O [Example 20.7]	5 to 91 nM		
CC(C)(C)NS(=O)(=O)c1scc(NC(=O)Nc2cccc(Cl)c2Cl)c1O [Example 20.13]		652 to 1920 nM	
CCNS(=O)(=O)c1scc(NC(=O)Nc2ccccc2Br)c1O [Example 20.10]	5 to 91 nM		
CCN(CC)S(=O)(=O)c1scc(NC(=O)Nc2cccc(Cl)c2Cl)c1O [Example 20.3]	5 to 91 nM	652 to 1920 nM	
CC(C)NS(=O)(=O)c1scc(NC(=O)Nc2cccc(Cl)c2Cl)c1O [Example 20.11]		652 to 1920 nM	
CN(C1CC1)S(=O)(=O)c1scc(NC(=O)Nc2cccc(Cl)c2Cl)c1O [Example 20.16]	5 to 91 nM and 5 to 10 nM and 6 nM	652 to 1920 nM	
CCN(C)S(=O)(=O)c1scc(NC(=S)Nc2cccc(Cl)c2Cl)c1O [Example 22]	5 to 91 nM		112 to 115
CN(C)S(=O)(=O)c1scc(NC(=O)Nc2ccccc2Br)c1O [Example 20.1]	5 to 91 nM		
CN(C(C)(C)C)S(=O)(=O)c1scc(NC(=O)Nc2cccc(Cl)c2Cl)c1O [Example 20.14]		652 to 1920 nM and 652 nM	
CCN(C)S(=O)(=O)c1scc(NC(=O)Nc2cccc(Cl)c2Cl)c1O [Example 21]	5 to 91 nM		
O=C(Nc1csc(S(=O)(=O)N2CCCC2)c1O)Nc1cccc(Cl)c1Cl [Example 20.18]	5 to 91 nM	652 to 1920 nM	
CN(C)S(=O)(=O)c1scc(NC(=O)Nc2cccc(Cl)c2Cl)c1O [Example 20]	5 to 91 nM		
CC(C)NS(=O)(=O)c1scc(NC(=O)Nc2ccccc2Br)c1O [Example 20.12]	5 to 91 nM		
CCN(C(C)(C)C)S(=O)(=O)c1scc(NC(=O)Nc2cccc(Cl)c2Cl)c1O [Example 20.15]	5 to 91 nM	652 to 1920 nM	
NS(=O)(=O)c1scc(NC(=O)Nc2cccc(Cl)c2Cl)c1O [Example 20.21]	5 to 91 nM		
O=C(Nc1ccccc1Br)Nc1csc(S(=O)(=O)N2CCCC2)c1O [Example 20.19]	5 to 91 nM	652 to 1920 nM	
CN(C1CCC1)S(=O)(=O)c1scc(NC(=O)Nc2cccc(Cl)c2Cl)c1O [Example 20.17]	5 to 91 nM		

Other lines, results leading:

Ki [1]	Ki [2]	melting point [°C]	Structure (SMILES)
5 to 91 nM			CC(C)CN(C)S(=O)(=O)c1scc(NC(=O)Nc2cccc(Cl)c2Cl)c1O [Example 21.3]
5 to 91 nM and 5 to 10 nM	652 to 1920 nM		CNS(=O)(=O)c1scc(NC(=O)Nc2cccc(Cl)c2Cl)c1O [Example 21.14]
5 to 91 nM	652 to 1920 nM		O=C(Nc1csc(S(=O)(=O)NC2CC2)c1O)Nc1cccc(Cl)c1Cl [Example 21.10]
5 to 91 nM			CCCCN(C)S(=O)(=O)c1scc(NC(=O)Nc2cccc(Cl)c2Cl)c1O [Example 21.2]
5 to 91 nM			CC(C)[C@@H](CO)NS(=O)(=O)c1scc(NC(=O)Nc2cccc(Cl)c2Cl)c1O [Example 21.12]
5 to 91 nM	652 to 1920 nM		CCN1CCN(S(=O)(=O)c2scc(NC(=O)Nc3cccc(Cl)c3Cl)c2O)CC1 [Example 21.5]
5 to 91 nM and 5 to 10 nM	652 to 1920 nM		O=C(Nc1csc(S(=O)(=O)N2CCC[C@H]2CO)c1O)Nc1cccc(Cl)c1Cl [Example 21.7]
5 to 91 nM and 5 to 10 nM	652 to 1920 nM		O=C(Nc1csc(S(=O)(=O)N2CCC[C@@H]2CO)c1O)Nc1cccc(Cl)c1Cl [Example 21.6]
5 to 91 nM and 5 to 10 nM			CC(C)N(C)S(=O)(=O)c1scc(NC(=O)Nc2cccc(Cl)c2Cl)c1O [Example 21.4]
5 to 91 nM and 5 to 10 nM			CCCN(C)S(=O)(=O)c1scc(NC(=O)Nc2cccc(Cl)c2Cl)c1O [Example 21.1]
5 to 91 nM			O=C(Nc1csc(S(=O)(=O)NC2(CO)CCCC2)c1O)Nc1cccc(Cl)c1Cl [Example 21.8]
